Source: US20060115815A1 (priority 2002, published 2006)
pEC50: −log10 of the molar value. “And” between values parts separate entries of the source, which are not always exact repeats. Equal values may be shown once.

What follows are compounds tested on wild-type HIV-1 strain IIIB (assay: microbe, parasite or virus in culture). Settings: Human immunodeficiency virus 1, IIIB, MT2.
Assay type: cell-based

SMILES | pEC50
CCOP(=O)(COc1ccc(S(=O)(=O)N(CC(C)C)CC(O)C(Cc2ccc(N)cc2)NC(=O)OC2COC3OCCC23)cc1)OCC (centres unmarked) [NH2, OEt] | 6.30 to 7.30

Same assay, conditions: read-out: EC50

SMILES | pEC50
CCOP(=O)(CCN1CCN(CC(NC(=O)OC2COC3OCCC23)C(O)CN(CC(C)C)S(=O)(=O)c2ccc(OC)cc2)CC1)OCC (centres unmarked) | 6.30 to 7.30
CCCCOC(=O)C(C)OP(=O)(COc1ccc(C[C@H](NC(=O)O[C@H]2CO[C@H]3OCC[C@H]32)[C@H](O)CN(CC(C)C)S(=O)(=O)c2cccc(N)c2)cc1)Oc1ccccc1 (some centres unmarked) [drawing 764] | 6.30 to 7.30
CC(C)CN(C[C@@H](O)[C@H](Cc1ccc(OCP(=O)(O)O)cc1)NC(=O)O[C@H]1CO[C@H]2OCC[C@H]21)S(=O)(=O)c1ccc(O)cc1 [drawing 652 R1=OH R2=OH] | 5.30 to 6.30
CCOC(=O)C(C)OP(=O)(CCNc1ccc(CC(NC(=O)OC2COC3OCCC23)C(O)CN(CC(C)C)S(=O)(=O)c2ccc(OC)cc2)cc1)Oc1ccccc1 (single isomer, unassigned) [drawing 706] | > 7.30
CCOC(=O)[C@H](C)OP(=O)(COc1ccc(C[C@H](NC(=O)O[C@H]2CO[C@H]3OCC[C@H]32)[C@H](O)CN(CC(C)C)S(=O)(=O)c2ccc(OC)cc2)cc1)Oc1cccc(CN(C)CCOC)c1 (stereo partly drawn) [drawing 660 R1=OPh-m-CH2NMeC2OM R2=(S)Lac-Et] | 6.30 to 7.30
CCCCOC(=O)C(CC)NP(=O)(COc1ccc(CC(NC(=O)OC2COC3OCCC23)C(O)CN(CC(C)C)S(=O)(=O)c2ccc(OC)cc2)cc1)Oc1ccccc1 (single isomer, unassigned) [drawing 657 R1=OPh R2=Aba-Bu] | > 7.30 and 6.30 to 7.30
CC(C)CN(C[C@@H](O)[C@H](Cc1ccc(OCP(=O)(OCc2ccccc2)OC(C)C(=O)OCc2ccccc2)cc1)NC(=O)O[C@H]1CO[C@H]2OCC[C@H]21)S(=O)(=O)c1ccc(OCc2ccccc2)cc1 (some centres unmarked) | < 5.30
CCOC(=O)C(CC)NP(=O)(CCNCc1ccc(C[C@H](NC(=O)O[C@H]2CO[C@H]3OCC[C@H]32)[C@H](O)CN(CC(C)C)S(=O)(=O)c2ccc(OC)cc2)cc1)Oc1ccccc1 (some centres unmarked) [drawing 662 R1=Ph R2=Aba-Et] | 5.30 to 6.30
COc1ccc(S(=O)(=O)N(CC(C)C)C[C@@H](O)[C@H](Cc2ccc(OCP(=O)(OCOC(=O)OC(C)C)OCOC(=O)OC(C)C)cc2)NC(=O)O[C@H]2CO[C@H]3OCC[C@H]32)cc1 [drawing 651 R1=OPoc R2=OPoc] | 5.30 to 6.30
CCCCOC(=O)CNP(=O)(COc1ccc(C[C@H](NC(=O)O[C@H]2CO[C@H]3OCC[C@H]32)[C@H](O)CN(CC(C)C)S(=O)(=O)c2ccc(OC)cc2)cc1)Oc1ccccc1 (some centres unmarked) [drawing 657 R1=OPh R2=Gly-Ru] | 6.30 to 7.30
CCOC(=O)C(CC)NP(=O)(COc1ccc(C[C@H](NC(=O)O[C@H]2CO[C@H]3OCC[C@H]32)[C@H](O)CN(CC(C)C)S(=O)(=O)c2ccc(OC)cc2)cc1)NC(CC)C(=O)OCC (some centres unmarked) [drawing 655 R1=Aba-Et R2=Aba-Et] | > 7.30
COc1ccc(S(=O)(=O)N(CCN(C)C)CC(O)C(Cc2ccc(O)cc2)NC(=O)OC2COC3OCCC23)cc1 (centres unmarked) | 6.30 to 7.30
CCOP(=O)(OCC)c1ccc(CNCC(NC(=O)OC2COC3OCCC23)C(O)CN(CC(C)C)S(=O)(=O)c2ccc(OC)cc2)cc1 (centres unmarked) | > 7.30
CC(C)CN(CC(O)C(Cc1ccc(OCP(=O)(OCc2ccccc2)OCc2ccccc2)cc1)NC(=O)OC1COC2OCCC12)S(=O)(=O)c1ccc(C=O)cc1 (centres unmarked) | > 7.30
CC(C)CN(CC(O)C(Cc1ccc(OCP(=O)(OCc2ccccc2)OC(C)C(=O)OCc2ccccc2)cc1)NC(=O)OC1COC2OCCC12)S(=O)(=O)c1ccc[n+]([O-])c1 (centres unmarked) | < 5.30
CCOC(=O)[C@H](C)OP(=O)(COc1ccc(C[C@H](NC(=O)O[C@H]2CO[C@H]3OCC[C@H]32)[C@H](O)CN(CC(C)C)S(=O)(=O)c2ccc(OC)cc2)cc1)ON1CCOCC1 (stereo partly drawn) [drawing 660 R1=OMor R2=(S)Lac-Et] | < 5.30
CCOP(=O)(COc1ccc(C[C@H](NC(=O)O[C@H]2CO[C@H]3OCC[C@H]32)[C@H](O)CN(CC(C)C)S(=O)(=O)c2ccc(O)cc2)cc1)OCC [drawing 652 R1=Et R2=Et] | > 7.30
CCCCOC(=O)C(Cc1ccccc1)NP(=O)(COc1ccc(CC(NC(=O)OC2COC3OCCC23)C(O)CN(CC(C)C)S(=O)(=O)c2ccc(OC)cc2)cc1)NC(Cc1ccccc1)C(=O)OCCCC (centres unmarked) [drawing 655 R1=Phe-Bu R2=Phe-Bu] | > 7.30
CCOC(=O)C(C)OP(=O)(COc1ccc(CC(NC(=O)OC2COC3OCCC23)C(O)CN(CC(C)C)S(=O)(=O)c2ccc(OC)cc2)cc1)Oc1cccc(C(=O)O)c1 [drawing 660 R1=OPh-m-COOH R2=(S)Lac-Et] | 6.30 to 7.30
CCOC(=O)C(C)OP(=O)(COc1ccc(CC(NC(=O)OC2COC3OCCC23)C(O)CN(CC(C)C)S(=O)(=O)c2ccc(OC)cc2)cc1)OCC (centres unmarked) [drawing 658 R1=OEt R2=Lac-Et] | 6.30 to 7.30
CCOC(=O)COP(=O)(COc1ccc(C[C@H](NC(=O)O[C@H]2CO[C@H]3OCC[C@H]32)[C@H](O)CN(CC(C)C)S(=O)(=O)c2ccc(OC)cc2)cc1)OCC(=O)OCC [drawing 656 R1=Glc-Et R2=Glc-Et] | 5.30 to 6.30
CCOC(=O)[C@H](C)OP(=O)(COc1ccc(C[C@H](NC(=O)O[C@H]2CO[C@H]3OCC[C@H]32)[C@H](O)CN(CC(C)C)S(=O)(=O)c2ccc(OC)cc2)cc1)Oc1cccc(CO)c1 (stereo partly drawn) [drawing 660 R1=OPh-m-CH2OH R2=(S)Lac-Et] | 6.30 to 7.30

SMILES | pEC50
CCOC(=O)C(CC)OP(=O)(COc1ccc(CC(NC(=O)OC2COC3OCCC23)C(O)CN(CC(C)C)S(=O)(=O)c2ccc(OC)cc2)cc1)Oc1ccccc1 [drawing 659 R1=OPh R2=(R)Hba-Et] | > 7.30
COc1ccc(S(=O)(=O)N(CC(C)C)C[C@@H](O)[C@H](Cc2ccc(OCP(=O)(Oc3ccccc3)OC(C)C(=O)OCCN3CCOCC3)cc2)NC(=O)O[C@H]2CO[C@H]3OCC[C@H]32)cc1 (some centres unmarked) [drawing 658 R1=OPh R2=Lac-EtMor] | < 5.30
CCOC(=O)C(C)OP(=O)(Cc1ccc(NCC(NC(=O)OC2COC3OCCC23)C(O)CN(CC(C)C)S(=O)(=O)c2ccc(OC)cc2)cc1)Oc1ccccc1 (centres unmarked) | > 7.30
CCOC(=O)COP(=O)(COc1ccc(CC(NC(=O)OC2COC3OCCC23)C(O)CN(CC(C)C)S(=O)(=O)c2ccc(OC)cc2)cc1)Oc1ccccc1 (centres unmarked) [drawing 658 R1=OPh R2=Glc-Et] | > 7.30
CCC(OP(=O)(COc1ccc(CC(NC(=O)OC2COC3OCCC23)C(O)CN(CC(C)C)S(=O)(=O)c2ccc(OC)cc2)cc1)Oc1ccccc1)C(=O)OC(C)(C)C [drawing 659 R1=OPh R2=(S)Hba-tBu] | > 7.30
CCOC(=O)[C@H](C)OP(=O)(COc1ccc(C[C@H](NC(=O)O[C@H]2CO[C@H]3OCC[C@H]32)[C@H](O)CN(CC(C)C)S(=O)(=O)c2ccc(COC(=O)[C@H](N)C(C)C)cc2)cc1)Oc1ccccc1 (some centres unmarked) | 6.30 to 7.30
CCOC(=O)C(CC)OP(=O)(COc1ccc(CC(NC(=O)OC2COC3OCCC23)C(O)CN(CC(C)C)S(=O)(=O)c2ccc(OC)cc2)cc1)Oc1ccccc1 [drawing 659 R1=OPh R2=(S)Hba-Et] | > 7.30
CCOC(=O)C(Cc1ccccc1)NP(=O)(COc1ccc(CC(NC(=O)OC2COC3OCCC23)C(O)CN(CC(C)C)S(=O)(=O)c2ccc(OC)cc2)cc1)NC(Cc1ccccc1)C(=O)OCC (centres unmarked) [drawing 655 R1=Phe-Et R2=Phe-Et] | > 7.30
CCOC(=O)C(C)OP(=O)(CN1CC=C(CC(NC(=O)OC2COC3OCCC23)C(O)CN(CC(C)C)S(=O)(=O)c2ccc(OC)cc2)CC1)Oc1ccccc1 (centres unmarked) | < 5.30
COc1ccc(S(=O)(=O)N(CC(C)C)C[C@@H](O)[C@H](Cc2ccc(OCP(=O)(Oc3ccccc3)OC(C)C(=O)OC(C)C)cc2)NC(=O)O[C@H]2CO[C@H]3OCC[C@H]32)cc1 (single isomer, unassigned) [drawing 658 R1=OPh R2=Lac-iPr] | > 7.30
CCOC(=O)C(C)OP(=O)(COc1ccc(C[C@H](NC(=O)O[C@H]2CO[C@H]3OCC[C@H]32)[C@H](O)CN(CC(C)C)S(=O)(=O)c2ccc(OCc3ccccc3)cc2)cc1)Oc1ccccc1 (some centres unmarked) | 6.30 to 7.30
CC(C)CN(C[C@@H](O)[C@H](Cc1ccc(OCP(=O)(OCc2ccccc2)OC(C)C(=O)OCc2ccccc2)cc1)NC(=O)O[C@H]1CO[C@H]2OCC[C@H]21)S(=O)(=O)c1ccccc1 (some centres unmarked) | 6.30 to 7.30
CCOC(=O)C(C)OP(=O)(COc1ccc(CC(NC(=O)OC2COC3OCCC23)C(O)CN(CC(C)C)S(=O)(=O)c2ccc(OC)cc2)cc1)Oc1ccccc1OCC [drawing 660 R1=OPh-o-OEt R2=(S)Lac-Et] | > 7.30
CCOC(=O)C(CC)OP(=O)(COc1ccc(CC(NC(=O)OC2COC3OCCC23)C(O)CN(CC(C)C)S(=O)(=O)c2ccc(OC)cc2)cc1)Oc1ccccc1 (mixture of isomers) [drawing 659 R1=OPh R2=mix-Hba-Et] | > 7.30
CCOC(=O)[C@H](C)OP(=O)(COc1ccc(C[C@H](NC(=O)O[C@H]2CO[C@H]3OCC[C@H]32)[C@H](O)CN(CC(C)C)S(=O)(=O)c2ccc(OC)cc2)cc1)Oc1cccc(CN(C)C)c1 (stereo partly drawn) [drawing 660 R1=OPh-m-CH2NMe2 R2=(S)Lac-Et] | 5.30 to 6.30
CCOC(=O)[C@H](C)OP(=O)(COc1ccc(C[C@H](NC(=O)O[C@H]2CO[C@H]3OCC[C@H]32)[C@H](O)CN(CC(C)C)S(=O)(=O)c2ccc(OC)cc2)cc1)Oc1cccc(CN2CCCCC2)c1 (stereo partly drawn) [drawing 660 R1=OPh-m-CH2Pip R2=(S)Lac-Et] | 6.30 to 7.30
CCOC(=O)[C@H](C)OP(=O)(COc1ccc(C[C@H](NC(=O)O[C@H]2CO[C@H]3OCC[C@H]32)[C@H](O)CN(CC(C)C)S(=O)(=O)c2ccc(OC)cc2)cc1)Oc1cccc(CN2CCOCC2)c1 (stereo partly drawn) [drawing 660 R1=OPh-m-CH2Mor R2=(S)Lac-Et] | 6.30 to 7.30
COc1ccc(S(=O)(=O)N(CC(C)C)C[C@@H](O)[C@H](Cc2ccc(OCP(=O)(Oc3ccccc3)O[C@@H](C)C(=O)OCCN3CCCCC3)cc2)NC(=O)O[C@H]2CO[C@H]3OCC[C@H]32)cc1 (stereo partly drawn) [drawing 659 R1=OPh R2=(S)Lac-EtPip] | 6.30 to 7.30
CCOC(=O)C(C)OP(=O)(COc1ccc(CC(NC(=O)OC2COC3OCCC23)C(O)CN(CC(C)C)S(=O)(=O)c2ccc(OC)cc2)cc1)Oc1ccccc1CC(C)C [drawing 660 R1=OPh—o-i-But R2=(S)Lac-Et] | > 7.30
CCOC(=O)C(C)OP(=O)(COc1ccc(C[C@H](NC(=O)O[C@H]2CO[C@H]3OCC[C@H]32)[C@H](O)CN(CC(C)C)S(=O)(=O)c2ccc(O)cc2)cc1)Oc1ccccc1 (some centres unmarked) | > 7.30
CCOC(=O)C(C)OP(=O)(CCNc1ccc(CC(NC(=O)OC2COC3OCCC23)C(O)CN(CC(C)C)S(=O)(=O)c2ccc(OC)cc2)cc1)Oc1ccccc1 (single isomer, unassigned) [drawing 707] | > 7.30
